Measurements as given in patent publication US7052850B2, “Isolated human EDG-4 receptor” (priority 1997, dated 2006).
“Also recorded” adds a separate entry of the source.

Tests used:
HeLa cells = assay: IL-8 response (IL-8 ELISA) in HeLa cells; format: cell-based, human
Procedure: • Cells: HeLa (adenocarcinoma, human) • Media: DMEM/F12+10% FBS Adherent • 1) Cells were seeded at 0.2×10^6 cells/well in 6-well plates. • 2) Confluency of cells after 24–32 hrs was between 60–70%. B. Overnight Serum-Starvation • 1) Media was aspirated (no PBS wash). • 2) 1.5 ml 0.5% FBS media was added to each well. C. Treatments and Collection • 1) Made up all required solutions in 0.5% FBS media (control). Handling of […] for use in NF-κB experiments requires that sonication, commonly used to resuspend LPA, not be done; NF-κB may be activated by lipid peroxides created through vigorous frothing. Solutions:
D. Detection of Interleukin-8 (IL-8) using an IL-8 ELISA (Enzyme-Linked ImmunoSorbent Assay). • 1) The Quantikine Human IL-8 Immuno Assay Kit was obtained from R&D Systems (Cat. D8050). • 2) The kit and all samples were allowed to equlibrate to room temperature prior to use. • 3) All reagents were provided in the kit and prepared according to the instructions provided. • 4) The assay procedure was followed as recommended in the kit for cell culture supernatant samples. • 5) ELISA was performed on 50 μl samples of culture supernatant and duplicate samples were measured for each well. Each treatment was performed on triplicate wells. • 6) Plates were read on UV max kinetic microplate reader (Molecular Devices), set to 450 nm and correction set to 575 nm, using Wsoftmax sotware version 2.34.
• 1) Cells were seeded at 2.5×10^4 cells/well in 24-well plates. • 2) Confluency of cells after 24–32 hrs was between 60–70%. B. Overnight Serum-Starvation and PTX Pre-Treatment • 1) Media was aspirated (no PBS wash). • 2) 0.5 ml 0.5% FBS media was added to all wells not requiring PTX pre-treatment. • 3) For well requiring PTX; 0.5 ml 0.5% FBS media containing 50 ng/ml PTX (1 volume PTX (RBI Cat. P140): 1 volume DTT, incubate 37° C. for 30 minutes then dilute to 50 ng/ml) was added. C. Treatments and Collection • 1) Made up all required solutions in 0.5% FBS media (control). […] D. Refer to Procedure #1 For HeLa Cells (D).

human EDG-3 [1] = target: human EDG-3 (Homo sapiens, UniProt Q99500); assay: SRE luciferase reporter in 293-EBNA cells, human EDG-3; format: cell-based; details: Assay 3; pancreas clone pC3-E3HP2; 3 μM
Procedure: (§1) The protocol described in Example 11 for Assay 1 was allowed except for the following changes: • 1) 100 mm plates of 293-EBNA ith a confluency of ˜80% were used for transfection, • 2) SRE Cotransfection: 0.5 μg of 2XSREtk-p4Luc-zeo reporter DNA and 3.5 μg pcDNA3, EDG-1, EDG-3 pC3-hE3P2, different from the clone used in Assay 2 of Example 11) or the newly cloned human EDG-4 (pC3-hedg4#36); NF-κB Cotransfection: 2 μg 6XNFκBtk-p4LUc-zeo reporter DNA and 2.0 μg pcDNA3, EDG-1, EDG-3 (pC3-hE3HP2), or EDG-4 (pC3-hedg4#36). Expression plasmid and reporter plasmid DNA samples were combined and diluted in 750 μl of DMEM/F12 (serum free media) and 20 μl Plus Reagent (Lipofectamine Plus Kit, Life Technologies Cat. 109640-13), and incubated at room temperature for 15 min. • 3) 30 μl Lipofectamine Reagent (Lipofectamine Plus Kit) was diluted in 750 μl DMEM/F12. The diluted Lipofectamine was then combined with the DNA/Plus mixture and incubated at room temperature for 15 min. • 4) The 293-EBNA plates were washed once with PBS and 5 ml DMEM/F12 was added to each plate. • 5) DNA/Plus/Lipofectamine mixture was added to each plate of 293-EBNA cells. […]

human EDG-3 [2] = assay: NF-κB luciferase reporter in 293-EBNA cells, human EDG-3; format: cell-based; details: for NF-κB response: original human EDG-3 clone (Assay 2)
Procedure: The above protocol for assay 1 was followed except for the following changes: • 1) 100 mm plates of 293-EBNA with a confluency of ˜80% were used for transfection. • 2) 3 μg NFκB-tk-p4Luc reporter DNA and 3 μg pC3-hedg1, pC3-hedg 3, pC3-redg4, pC3-hedg5 or pcDNA3 DNA was diluted in 240 μl OPTI-MEM (Gibco; Cat. 31985-062) • 3) 22 μl lipofectamine (Gibco; Cat. 1 8324-020) was diluted in 240 μl OPTI-MEM. • 4) The 293-EBNA plates were washed once with PBS and 7 ml OPTI-MEM was added to each plate. • 5) DNA/lipofectamine mixture was added to each plate of 293-EBNA cells. The plates were left for 4 hrs at 37° C. in a 5% CO2 incubator. Day 2: • 1) 0.01×10^6 cells were plated per well of 96-well Blackview plate coated with polyD-lysine. No cells were plated in the outside wells of the 96-well plate. Day 3: The following treatments were used for all transections:
Expression plasmid and reporter plasmid DNA samples were combined and diluted in 750 μl of DMEM/F12 (serum free media) and 20 μl Plus Reagent (Lipofectamine Plus Kit, Life Technologies Cat. 109640-13), and incubated at room temperature for 15 min. • 3) 30 μl Lipofectamine Reagent (Lipofectamine Plus Kit) was diluted in 750 μl DMEM/F12. The diluted Lipofectamine was then combined with the DNA/Plus mixture and incubated at room temperature for 15 min. • 4) The 293-EBNA plates were washed once with PBS and 5 ml DMEM/F12 was added to each plate. • 5) DNA/Plus/Lipofectamine mixture was added to each plate of 293-EBNA cells. The plates were left for 3 hr at 37° C. in a 5% CO2 incubator. • 6) The transfection medium was replaced with serum-free DMEM/F12 for cells transfected with 2XSREtk-p4Luc-zeo reporter DNA and with DMEM/F12 plus 10% FBS for cells transfected with 6XNFκBtk-p4Luc-zeo reporter DNA. • Day 2. • 2) Transfected cells were harvested by trypsinization and 50,000 cells per well were plated in 96-well Blackview plates coated with poly D-lysine Becton Dickinson Labware, Cat. 40640). […]

human EDG-4 = target: T1, human EDG-4 (Homo sapiens, UniProt O95136, F273L/I205V); assay: NF-κB luciferase reporter in 293-EBNA cells, human EDG-4; format: cell-based; details: Assay 3; pC3-hedg4#36; 3 μM; 6 hours
T1 construct: a 1059 bp open reading frame (excluding the stop codon) corresponding to the complete human edg-4 coding region; expressed in transfected cells; host or cells: 293-EBNA
Procedure: as §1

HL-60 cells = assay: IL-8 response in HL-60 cells; format: cell-based, human; details: 1, 6 or 24 hours, S1P or LPA up to 3 μM, TNF-α 10 ng/ml
EDG-2 = target: T2, EDG-2 (Homo sapiens, UniProt Q92633); assay: NF-κB reporter in 293-EBNA cells, EDG-2; format: cell-based; details: 10 μM LPA overnight
T2 construct: expressed in transfected cells; host or cells: 293-EBNA
Description: LPA, like S1P, is abundant in serum, but not plasma. Moreover, LPA is produced as a consequence of phospholipase A2 with or without the contribution of phospholipase D (depending on the phospholipid substrate). […] To date we have identified three subtypes of edg receptors that respond to LPA as an agonist. These are EDG-2, […] (referred to also as LPA1, LPA2 and LPA3, respectively (Chun, J, Contos, JJA and Munroe, DG. 1998. A growing family of receptor genes for lysophophatidid acid (LPA) and other lyso-phospholipids. Cell Biochem Biophys (in press)). The EDG-5 receptor is set out in co-pending U.S. application Ser. No. 08/997,803 to MUNROE et al., incorporated herein to reference and the amino acid sequence and cDNA sequence for the EDG-6 receptor is set out in FIGS. 21 and 22, respectively. To determine whether these receptors might mediate inflammatory responses, each was cotransfected separately with SRE, NF-κB or AP-1 reporter genes. […] This transcription factor, like NF-κB has been implicated in inflammatory and neoplastic signal transduction, though the gene targets of its action are largely distinct from those of NF-κB (Adcock I M. 1997. Transcription factors as activators of gene transcription; AP-1 and NF-κB. Monaldi Arch Chest Dis 52:178–186. Review). […]

EDG-1 = EDG-1 (Homo sapiens, UniProt P21453); assay: NF-κB luciferase reporter in 293-EBNA cells, EDG-1; format: cell-based; details: Assay 3; 3 μM; 6 hours
Procedure: as §1

EDG-7 = assay: NF-κB reporter, EDG-7; format: cell-based

human EDG-3 (Homo sapiens, UniProt Q99500), sequence (Q99500 whole entry): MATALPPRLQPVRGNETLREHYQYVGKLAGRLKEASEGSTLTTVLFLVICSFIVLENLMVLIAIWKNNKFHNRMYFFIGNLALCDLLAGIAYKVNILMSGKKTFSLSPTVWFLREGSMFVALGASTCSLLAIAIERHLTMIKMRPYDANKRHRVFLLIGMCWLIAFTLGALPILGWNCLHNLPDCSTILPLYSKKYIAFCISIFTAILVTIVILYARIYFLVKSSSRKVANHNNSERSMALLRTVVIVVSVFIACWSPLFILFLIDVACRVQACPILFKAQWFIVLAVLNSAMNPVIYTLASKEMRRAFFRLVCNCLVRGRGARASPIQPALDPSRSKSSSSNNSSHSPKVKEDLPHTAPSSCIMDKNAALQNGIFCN
T1 sequence (O95136 whole entry I205V/F273L): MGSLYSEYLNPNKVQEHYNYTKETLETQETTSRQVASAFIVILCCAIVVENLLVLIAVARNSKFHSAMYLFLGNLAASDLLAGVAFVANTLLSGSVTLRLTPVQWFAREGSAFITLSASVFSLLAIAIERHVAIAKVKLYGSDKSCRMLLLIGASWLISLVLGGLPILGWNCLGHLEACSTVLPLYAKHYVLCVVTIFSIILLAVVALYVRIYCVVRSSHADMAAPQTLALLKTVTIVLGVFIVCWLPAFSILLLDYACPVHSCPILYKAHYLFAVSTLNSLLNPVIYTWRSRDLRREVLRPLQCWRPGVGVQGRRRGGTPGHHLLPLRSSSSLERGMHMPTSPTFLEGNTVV
EDG-1, sequence (P21453 whole entry): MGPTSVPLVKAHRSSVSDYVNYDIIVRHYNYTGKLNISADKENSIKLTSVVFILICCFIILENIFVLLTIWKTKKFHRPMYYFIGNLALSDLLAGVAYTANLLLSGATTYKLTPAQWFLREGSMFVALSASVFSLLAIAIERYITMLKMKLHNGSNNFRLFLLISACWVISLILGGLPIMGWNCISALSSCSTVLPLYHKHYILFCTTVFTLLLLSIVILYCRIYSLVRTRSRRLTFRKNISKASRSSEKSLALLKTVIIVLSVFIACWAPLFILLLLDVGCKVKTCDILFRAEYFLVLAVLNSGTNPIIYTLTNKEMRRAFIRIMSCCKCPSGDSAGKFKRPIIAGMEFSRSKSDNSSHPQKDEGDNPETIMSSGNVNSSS
T2 sequence (Q92633 whole entry): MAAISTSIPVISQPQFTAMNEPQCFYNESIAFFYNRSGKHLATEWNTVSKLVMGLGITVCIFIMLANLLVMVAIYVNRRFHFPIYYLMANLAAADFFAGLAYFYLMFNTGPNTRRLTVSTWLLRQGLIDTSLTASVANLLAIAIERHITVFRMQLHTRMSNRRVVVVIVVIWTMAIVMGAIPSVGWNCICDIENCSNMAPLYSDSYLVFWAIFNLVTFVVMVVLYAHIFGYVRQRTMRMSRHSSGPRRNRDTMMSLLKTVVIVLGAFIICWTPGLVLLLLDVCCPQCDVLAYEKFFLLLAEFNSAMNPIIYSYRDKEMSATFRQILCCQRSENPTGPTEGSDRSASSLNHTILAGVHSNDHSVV

activation of the NF-κB reporter (EDG-2) | Compound | IL-8 induction (HeLa cells; 6 hours, concentration series) | SRE reporter response (human EDG-3 [1]) | induction of the NF-κB reporter gene compared to untreated controls (human EDG-3 [2]; Assay 3, pancreas EDG-3 clone, 3 μM) | NF-κB response (human EDG-3 [2]) | induction of the NF-κB reporter gene (human EDG-4) | IL-8 response (HeLa cells; 1 and 10 μM, 1, 6 or 24 hours) | IL-8 release (HL-60 cells) | luciferase activity (NF-κB reporter) (EDG-1) | NF-κB reporter response (EDG-7)
 | CCCCCCCCCCCCC/C=C/[C@@H](O)[C@@H](N)COP(=O)([O-])OCC[N+](C)(C)C [SPC, sphingosylphosphorylcholine] | can induce IL-8 in HeLa cells in a concentration-dependent manner; also recorded: significantly induced IL-8 production | 11 fold | about 8 fold | did not produce a NF-κB response | 9 fold |  |  |  | 
3–4 fold | lysophosphatidic acid [LPA] |  |  |  |  |  | not | no such release |  | 
 | CCCCCCCCCCCCC/C=C/[C@@H](O)[C@@H](N)COP(=O)(O)O [S1P, sphingosine 1-phosphate] |  | 12 fold |  | did not produce a NF-κB response | 4.5 fold |  | no such release; also recorded: fail to produce IL-8 below the cytotoxic threshold | no increase in luciferase activity | fail to signal through NF-κB reporters
